# Patent US20230339878A1, “SLC26A3 INHIBITORS AND USE THEREOF” (THE REGENTS OF THE UNIVERSITY OF CALIFORNIA, priority 2018, published 2023)
# Entries after “also recorded” stand apart in the source; their conditions may differ. Like-named read-outs stand apart in the source and are kept apart here.
# Experiments:
# murine slc26a3 = target: T1, murine slc26a3 (Mus musculus, UniProt Q9WVC8); test: slc26a3-mediated Cl-/I- exchange, YFP fluorescence quenching in FRT-YFP-slc26a3 cells; format: cell-based
# T1 construct: host or cells: Fischer rat thyroid (FRT) cells expressing YFP, clonal line FRT-YFP-slc26a3
# T1 sequence (Q9WVC8 1-757): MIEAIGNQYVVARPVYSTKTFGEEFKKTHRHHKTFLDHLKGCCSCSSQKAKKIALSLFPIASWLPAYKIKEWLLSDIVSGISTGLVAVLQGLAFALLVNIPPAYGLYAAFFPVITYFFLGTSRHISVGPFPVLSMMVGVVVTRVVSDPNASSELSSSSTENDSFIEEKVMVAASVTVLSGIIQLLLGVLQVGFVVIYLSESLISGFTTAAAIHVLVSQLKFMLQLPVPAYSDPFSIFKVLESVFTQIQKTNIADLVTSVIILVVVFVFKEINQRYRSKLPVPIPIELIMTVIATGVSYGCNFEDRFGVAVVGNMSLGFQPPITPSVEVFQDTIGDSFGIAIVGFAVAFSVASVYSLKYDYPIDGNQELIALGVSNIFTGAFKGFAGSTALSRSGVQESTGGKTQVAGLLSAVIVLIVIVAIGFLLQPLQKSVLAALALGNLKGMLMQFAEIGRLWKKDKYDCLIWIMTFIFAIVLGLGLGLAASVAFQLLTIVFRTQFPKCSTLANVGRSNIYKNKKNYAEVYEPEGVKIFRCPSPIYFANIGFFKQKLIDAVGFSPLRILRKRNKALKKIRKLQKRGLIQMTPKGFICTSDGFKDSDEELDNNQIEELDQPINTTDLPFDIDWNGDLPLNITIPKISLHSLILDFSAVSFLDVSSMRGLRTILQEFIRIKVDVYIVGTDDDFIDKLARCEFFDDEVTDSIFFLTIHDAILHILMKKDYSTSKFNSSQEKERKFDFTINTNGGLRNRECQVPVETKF
# Procedure: High-throughput screening to identify slc26a3 inhibitors using FRT-YFP- slc26a3 cells was done with a semi-automated Beckman Coulter (Indianapolis, IN) platform with FLUOstar OMEGA plate readers (BMG Labtech, Cary, NC), essentially as described for discovery of pendrin inhibitors. Initial screening was done of ~50,000 drug-like synthetic small molecules (ChemDiv, San Diego, CA) at a concentration of 25 µM using a Cl^-/I^- exchange protocol to assay slc26a3 function. Following initial screening, compound analogs were purchased (ChemDiv, San Diego, CA) to generate structure-activity data.
# For the screening, FRT-YFP-slc26a3 cells were plated in 96-well black-walled, clear-bottom tissue culture plates (Corning Life Sciences, Tewksbury, MA) at a density of 20,000 cells/well and cultured for 48 hours until confluent. For screening, cells were washed twice in PBS and incubated for 10 min in 100 µl PBS containing test compounds prior to assay of slc26a3 function. Assays were done using a FLUOstar OMEGA plate reader (BMG Labtech, Cary, NC) over 12 s with initial fluorescence recorded over 1 s prior to addition of 100 µl NaI-substituted PBS (137 mM NaCl replaced by 137 mM NaI) to drive Cl^-/I^- exchange. The initial rate of Cl^-/I^- exchange was determined from fluorescence intensity by single exponential regression. All plates contained wells with negative (1 % DMSO) and positive (350 µM niflumic acid) controls.
# Screening was done using an FRT cell line stably expressing murine slc26a3 and a halide-sensitive yellow fluorescent protein (FRT-YFP- slc26a3 cells). FRT cells were used because of their low intrinsic permeability to anions that are transported by slc26a3, and because of their good adherence and rapid growth on uncoated plastic. As diagrammed in FIG. 1A, slc26a3-mediated transport was assayed from the kinetics of YFP fluorescence quenching in response to extracellular addition of I^- to drive Cl^-/I^- exchange; transport inhibition reduces the rate of fluorescence decrease.
# slc26a3 = target: T2, slc26a3 (Mus musculus, UniProt Q9WVC8); test: slc26a3-mediated Cl-/HCO3- exchange, BCECF cytoplasmic pH in slc26a3-expressing FRT cells; format: cell-based, murine; conditions: increase in cytoplasmic pH, read-out: IC50 for inhibition of slc26a3-mediated Cl-/HCO3- exchange
# T2 construct: host or cells: Fischer rat thyroid (FRT) cells expressing YFP, clonal line FRT-YFP-slc26a3
# T2 sequence (Q9WVC8 1-757): T1 sequence (Q9WVC8 1-757)
# Procedure: Concentration-dependence measurements for inhibition of slc26a3-mediated exchange of Cl^- and HCO3^-, the physiologically relevant activity of slc26a3, was measured using slc26a3-expressing FRT cells labeled with BCECF as a cytoplasmic pH sensor. Labeled cells were initially incubated in a Cl^--containing HCO3^- buffered solution, and HCO3^- influx / Cl^- efflux with cytoplasmic alkalinization was produced by addition of a gluconate-containing HCO3^- buffered solution. […] Concentration-dependence measurements for inhibition of slc26a3-mediated Cl^-/SCN^- exchange gave an IC50 of ~0.3 µM (FIG. 4B).
# YFP-based assays of CFTR, pendrin and TMEM16A were as described. HEK cells transfected to express YFP and SLC26A3, slc26a6 or slc26a9 were functionally assayed using a Cl^-/I^- exchange protocol. Assays of Cl^-/HCO3^- exchange were done using BCECF as an intracellular pH indicator as described for pendrin. Short-circuit current (ISC) measurements in well-differentiated HBE cell cultures were done using techniques known in the art.
# [1] = Pharmacokinetics in mice, serum LC/MS; format: in vivo; conditions: for oral bioavailability / bioavailability: 5 mg/kg (A1, A260) or 10 mg/kg (A270), mice; for bioavailability: mouse, serum, po, n=3, read-out: oral bioavailability (mean±SEM)
# Procedure: Pharmacokinetics of the Compound A1(DRAinh-A250) and analogs (DRAinh-A260 and DRAinh-A270) was determined in mice. After single dose intraperitoneal or oral administration (5 mg/kg for Compound A1 and DRAinh-A260, 10 mg/kg for DRAinh-A270), blood samples were collected via retro-orbital puncture at different time points and serum was separated by centrifugation. Compound concentrations were measured in serum using LC/MS. FIGS. 10A, 10B, 10C show the respective serum concentration of Compound A1 (FIG. 10A), DRAinh-A260 (FIG. 10B) and DRAinh-A270 (FIG. 10C) after single oral or intraperitoneal administration at zero time (n=3 mice per compound per administration route). Compound A1 had predicted therapeutic levels for at least 24 hours after single dose oral or intraperitoneal administration. […] (mean±SEM): 53.9±6.5% for Compound A1, 16.4±6.6% for DRAinh-A260, and 39.3±3.5% for DRAinh-A270.
SMILES,"reversibility of inhibition (murine slc26a3; 1 µM for 10 min, then washed three times)","IC50 (murine slc26a3; selected class A analogs, Table 1, Cl-/I- exchange, read-out: IC50) [µM]","IC50 (murine slc26a3; summary statement, read-out: IC50 for inhibition of SLC26A3-mediated anion exchange) [µM]",IC50 (slc26a3) [µM],oral bioavailability [1] [%],time with predicted therapeutic serum levels ([1]; 5 mg/kg single dose oral or intraperitoneal),bioavailability [1] [%],potency compared to Compound A1 (DRAinh-A250) (murine slc26a3; FIG. 9),"IC50 (murine slc26a3; FIG. 9 concentration-inhibition curves, read-out: IC50 for slc26a3-mediated Cl-/I- exchange) [µM]","IC50 (murine slc26a3; representative Class A compounds, Table 3, read-out: IC50) [µM]",time with predicted therapeutic serum concentrations ([1]; 10 mg/kg single dose oral or intraperitoneal)
Cc1c(CC(=O)O)c(=O)oc2c(C)c(OCc3cccc(Br)c3)ccc12 [Compound A1],full reversibility; also recorded: fully and reversibly inhibited,0.15,0.1 to 0.2,~0.1,54,at least 24 hours,53.9 ± 6.5,–,–,–,–
Cc1c(CC(=O)O)c(=O)oc2c(C)c(OCc3cccc(I)c3)ccc12 [DRAinh-A270],–,–,–,–,39,–,39.3 ± 3.5,four-fold improved potency,~0.05,0.04,for several days
